According to patent US12227482B2, “Compounds and compositions for the treatment of cancer” (The Regents of the University of California, priority 2016, dated 2025):

Assays:
Format in all cases: cell-based
LOX cells = assay: Cell viability (CellTiter-Glo ATP content) in LOX cells; conditions: LOX, 72 h, 72 hours treatment, cell survival by CellTiter-Glo, 2% fetal bovine serum
Method: (§1) Logarithmically growing A549, LOX and MelJuSo cells (ATCC) were plated in antibiotic-free RPMI medium (Coming) supplemented with 2% fetal bovine serum (Gemini Bio-products) at a density of 5,000 cells per well in clear-bottom 96-well plates. The next day cells were treated (triplicates) with increasing doses of a compound of the present disclosure (dissolved in DMSO) and DMSO vehicle controls (final DMSO concentration of 0.5%) for 72 hours and subsequently assessed for cell viability by measuring ATP content with CellTiter-Glo Luminescent Cell Viability Assay (Promega). Signal intensity was measured on a Glomax™ 96 Microplate Luminometer (Promega) and percent cell survival was calculated based on the reading of vehicle control cells set as 100%.

A549 cells = assay: Cell viability (CellTiter-Glo ATP content) in A549 cells; conditions: Homo sapiens, A549, 72 h, 72 hours treatment, cell survival by CellTiter-Glo, 2% fetal bovine serum
Method: as §1

MelJuSo cells = assay: Cell viability (CellTiter-Glo ATP content) in MelJuSo cells; conditions: Homo sapiens, MEL-JUSO, 72 hours treatment, cell survival by CellTiter-Glo, 2% fetal bovine serum
Method: as §1

SMILES	IC50 (LOX cells)	IC50 (A549 cells)	IC50 (MelJuSo cells)
CCCCC1C(c2ccc(F)cc2)=NN(c2ccc(Cl)cc2F)C1(C)C(=O)NCCCC(C)(C)CO (stereo not drawn) [Compound 23, 4-butyl-1-(4-chloro-2-fluorophenyl)-3-(4-fluorophenyl)-N-(5-hydroxy-4,4-dimethylpentyl)-5-methyl-4,5-dihydro-1H-pyrazole-5-carboxamide]	0.5 to 1 µM	0.5 to 1 µM	0.25 to 0.5 µM
CCCCC1C(c2ccc(F)cc2)=NN(c2ccc(F)cc2F)C1(C)C(=O)NCCCN(C)C (stereo not drawn) [Compound 24, 4-butyl-1-(2,4-difluorophenyl)-N-(3-(dimethylamino)propyl)-3-(4-fluorophenyl)-5-methyl-4,5-dihydro-1H-pyrazole-5-carboxamide]	> 2 µM	> 2 µM	> 2 µM
CCCCC1C(c2ccc(F)cc2)=NN(c2ccc(F)cc2F)C1(C)C(=O)NCCCCOC (stereo not drawn) [Compound 25, 4-butyl-1-(2,4-difluorophenyl)-3-(4-fluorophenyl)-N-(4-methoxybutyl)-5-methyl-4,5-dihydro-1H-pyrazole-5-carboxamide]	> 2 µM	> 2 µM	1 to 2 µM
CCCCC1C(c2ccc(F)cc2)=NN(c2ccc(F)cc2F)C1(C)C(=O)N(C)CCCOC (stereo not drawn) [Compound 26, 4-butyl-1-(2,4-difluorophenyl)-3-(4-fluorophenyl)-N-(3-methoxypropyl)-N,5-dimethyl-4,5-dihydro-1H-pyrazole-5-carboxamide]	> 2 µM	> 2 µM	> 2 µM
CCCCC1C(c2ccc(F)cc2)=NN(c2ccc(C(F)(F)F)cc2)C1(C)C(=O)NCCCC(C)(C)CO (stereo not drawn) [Compound 28, 4-butyl-3-(4-fluorophenyl)-N-(5-hydroxy-4,4-dimethylpentyl)-5-methyl-1-(4-(trifluoromethyl)phenyl)-4,5-dihydro-1H-pyrazole-5-carboxamide]	1 to 2 µM	> 2 µM	1 to 2 µM
CCCCC1C(c2ccc(F)cc2)=NN(c2ccc(Cl)cc2C)C1(C)C(=O)NCCCC(C)(C)CO (stereo not drawn) [Compound 29, 4-butyl-1-(4-chloro-2-methylphenyl)-3-(4-fluorophenyl)-N-(5-hydroxy-4,4-dimethylpentyl)-5-methyl-4,5-dihydro-1H-pyrazole-5-carboxamide]	> 2 µM	> 2 µM	> 2 µM
CCCCC1C(c2ccc(F)cc2)=NN(c2ccc(Cl)cc2C)C1(C)C(=O)NCCCOC (stereo not drawn) [Compound 30, 4-butyl-1-(4-chloro-2-methylphenyl)-3-(4-fluorophenyl)-N-(3-methoxypropyl)-5-methyl-4,5-dihydro-1H-pyrazole-5-carboxamide]	> 2 µM	> 2 µM	> 2 µM
CCCCC1C(c2ccc(F)cc2)=NN(c2ccc(F)cc2F)C1(C)C(=O)NCCC(=O)OC (stereo not drawn) [Compound 31, methyl 3-(4-butyl-1-(2,4-difluorophenyl)-3-(4-fluorophenyl)-5-methyl-4,5-dihydro-1H-pyrazole-5-carboxamido)propanoate]	1 to 2 µM	1 to 2 µM	0.5 to 1 µM
CCCCC1C(c2ccc(F)cc2)=NN(c2ccc(F)cc2F)C1(C)C(=O)NCCOCC (stereo not drawn) [Compound 32, 4-butyl-1-(2,4-difluorophenyl)-N-(2-ethoxyethyl)-3-(4-fluorophenyl)-5-methyl-4,5-dihydro-1H-pyrazole-5-carboxamide]	0.5 to 1 µM	0.5 to 1 µM	0.25 to 0.5 µM
CCCCC1C(c2ccc(F)cc2)=NN(c2ccccc2)C1(C)C(=O)NCCCCCO (stereo not drawn) [Compound 33, 4-butyl-3-(4-fluorophenyl)-N-(5-hydroxypentyl)-5-methyl-1-phenyl-4,5-dihydro-1H-pyrazole-5-carboxamide]	1 to 2 µM	> 2 µM	0.5 to 1 µM
CCCCC1C(c2ccc(F)cc2)=NN(c2ccccc2)C1(C)C(=O)NCCCCCCO (stereo not drawn) [Compound 34, 4-butyl-3-(4-fluorophenyl)-N-(6-hydroxyhexyl)-5-methyl-1-phenyl-4,5-dihydro-1H-pyrazole-5-carboxamide]	0.5 to 1 µM	> 2 µM	0.5 to 1 µM
CCCCC1C(c2ccc(F)cc2)=NN(c2ccccc2)C1(C)C(=O)NCCCCO (stereo not drawn) [Compound 35, 4-butyl-3-(4-fluorophenyl)-N-(4-hydroxybutyl)-5-methyl-1-phenyl-4,5-dihydro-1H-pyrazole-5-carboxamide]	1 to 2 µM	> 2 µM	1 to 2 µM
CCCCC1C(c2ccc(F)cc2)=NN(c2ccccc2)C1(C)C(=O)NCc1ccc(O)cc1 (stereo not drawn) [Compound 36, 4-butyl-3-(4-fluorophenyl)-N-(4-hydroxybenzyl)-5-methyl-1-phenyl-4,5-dihydro-1H-pyrazole-5-carboxamide]	> 2 µM	> 2 µM	1 to 2 µM
CCCCC1C(c2ccc(F)cc2)=NN(c2ccccc2)C1(C)C(=O)NC(C)(C)CO (stereo not drawn) [Compound 37, 4-butyl-3-(4-fluorophenyl)-N-(1-hydroxy-2-methylpropan-2-yl)-5-methyl-1-phenyl-4,5-dihydro-1H-pyrazole-5-carboxamide]	> 2 µM	> 2 µM	> 2 µM
CCCCC1C(c2ccc(F)cc2)=NN(c2ccccc2)C1(C)C(=O)NCCc1ccc(O)cc1 (stereo not drawn) [Compound 38, 4-butyl-3-(4-fluorophenyl)-N-(4-hydroxyphenethyl)-5-methyl-1-phenyl-4,5-dihydro-1H-pyrazole-5-carboxamide]	> 2 µM	> 2 µM	0.5 to 1 µM
CCCCC1C(c2ccc(F)cc2)=NN(c2ccccc2)C1(C)C(=O)NCc1cccc(Cl)c1 (stereo not drawn) [Compound 39, 4-butyl-N-(3-chlorobenzyl)-3-(4-fluorophenyl)-5-methyl-1-phenyl-4,5-dihydro-1H-pyrazole-5-carboxamide]	> 2 µM	> 2 µM	> 2 µM
CCCCC1C(c2ccc(F)cc2)=NN(c2ccccc2)C1(C)C(=O)NCc1ccc(Cl)c(Cl)c1 (stereo not drawn) [Compound 40, 4-butyl-N-(3,4-dichlorobenzyl)-3-(4-fluorophenyl)-5-methyl-1-phenyl-4,5-dihydro-1H-pyrazole-5-carboxamide]	> 2 µM	> 2 µM	> 2 µM
CCCCC1C(c2ccc(F)cc2)=NN(c2ccccc2)C1(C)C(=O)NCc1cc(Cl)cc(Cl)c1 (stereo not drawn) [Compound 41, 4-butyl-N-(3,5-dichlorobenzyl)-3-(4-fluorophenyl)-5-methyl-1-phenyl-4,5-dihydro-1H-pyrazole-5-carboxamide]	> 2 µM	> 2 µM	1 to 2 µM
CCCCC1C(c2ccc(F)cc2)=NN(c2ccccc2)C1(C)C(=O)N[C@@H](C)c1ccccc1 (stereo partly drawn) [Compound 42, 4-butyl-3-(4-fluorophenyl)-5-methyl-1-phenyl-N-((S)-1-phenylethyl)-4,5-dihydro-1H-pyrazole-5-carboxamide]	> 2 µM	> 2 µM	> 2 µM
CCCCC1C(c2ccc(F)cc2)=NN(c2ccccc2)C1(C)C(=O)N[C@H](C)c1ccccc1 (stereo partly drawn) [Compound 43, 4-butyl-3-(4-fluorophenyl)-5-methyl-1-phenyl-N-((R)-1-phenylethyl)-4,5-dihydro-1H-pyrazole-5-carboxamide]	> 2 µM	> 2 µM	> 2 µM
CCCCC1C(c2ccc(F)cc2)=NN(c2ccccc2)C1(C)C(=O)NCc1ccccc1OC (stereo not drawn) [Compound 44, 4-butyl-3-(4-fluorophenyl)-N-(2-methoxybenzyl)-5-methyl-1-phenyl-4,5-dihydro-1H-pyrazole-5-carboxamide]	> 2 µM	> 2 µM	> 2 µM
